In ChEMBL document CHEMBL1150297, “Beta-amino acid substitutions and structure-based CoMFA modeling of hepatitis C virus NS3 protease inhibitors” (Bioorg Med Chem, 2008):

Experiment: Inhibition of HCV NS3 protease by fluorescence plate reader
Design: species or system Hepacivirus hominis
`COc1ccc2c(O[C@@H]3C[C@@H](C(=O)NC4(C(=O)NS(=O)(=O)c5ccccc5)CC4)N(C(=O)C[C@@H](NC(=O)OC(C)(C)C)C(C)C)C3)cc(-c3ccccc3)nc2c1` showed a Ki of 1200 nM. With `COc1ccc2c(O[C@@H]3C[C@@H](C(=O)NC4(C(=O)O)CC4)N(C(=O)C[C@@H](NC(=O)OC(C)(C)C)C(C)C)C3)cc(-c3ccccc3)nc2c1` the Ki was 17000 nM. `COc1ccc2c(O[C@@H]3C[C@@H](C(=O)NC4(C(=O)C(=O)O)CC4)N(C(=O)[C@@H](NC(=O)OC(C)(C)C)C(C)C)C3)cc(-c3ccccc3)nc2c1` showed a Ki of 1000 nM. In the case of `COc1ccc2c(O[C@@H]3C[C@@H](CC(=O)NC4(C(=O)O)CC4)N(C(=O)[C@@H](NC(=O)OC(C)(C)C)C(C)C)C3)cc(-c3ccccc3)nc2c1`, the Ki is reported as 61000 nM. With `COc1ccc2c(O[C@@H]3C[C@@H](C(=O)NC4(CC(=O)NS(=O)(=O)c5ccccc5)CC4)N(C(=O)[C@@H](NC(=O)OC(C)(C)C)C(C)C)C3)cc(-c3ccccc3)nc2c1` the Ki was 14000 nM. For `COc1ccc2c(O[C@@H]3C[C@@H](C(=O)NC4(C(=O)NS(=O)(=O)c5ccccc5)CC4)N(C(=O)[C@@H](NC(=O)OC(C)(C)C)C(C)C)C3)cc(-c3ccccc3)nc2c1`, the Ki was 55 nM. In the case of `COc1ccc2c(O[C@@H]3C[C@@H](C(=O)NC4(CC(=O)O)CC4)N(C(=O)[C@@H](NC(=O)OC(C)(C)C)C(C)C)C3)cc(-c3ccccc3)nc2c1`, the Ki is reported as 18000 nM. For `COc1ccc2c(O[C@@H]3C[C@@H](C(=O)NC4(C(=O)O)CC4)N(C(=O)[C@@H](NC(=O)OC(C)(C)C)C(C)C)C3)cc(-c3ccccc3)nc2c1`, the Ki was 320 nM. Compound `COc1ccc2c(O[C@@H]3C[C@@H](CC(=O)NC4(C(=O)NS(=O)(=O)c5ccccc5)CC4)N(C(=O)[C@@H](NC(=O)OC(C)(C)C)C(C)C)C3)cc(-c3ccccc3)nc2c1` has a Ki of 1800 nM.
